{"source": "patent US10689394B2", "about": "“Thieno[2,3-b]pyridine derivative, quinoline derivative, and use thereof” (The University of Tokyo, priority 2016, dated 2020)", "key": {"[1]": {"tested_on": "binding between 122 types of ALS-related mutant SOD1s and Derlin-1", "test": "Cell-based co-immunoprecipitation with 122 types of ALS-related mutant SOD1s", "set-up": "species or system human", "settings": "co-immunoprecipitation at cell level, FIG. 2 to FIG. 9", "method": "Transfection into the HEK293A cells was carried out using PEI-Max (Polyscience) at a ratio of 3 μL of PEI-Max to 1 μg of plasmid. DMEM was mixed with PEI-Max, and the mixture was then left at rest for 5 minutes. Thereafter, the reaction mixture was added to the plasmid DNA dissolved in DMEM, and the thus obtained mixture was further left at rest for 15 minutes. After seeding, the culture was carried out for 12 to 24 hours, and the resultant was then added to a culture medium of cells, in which the medium had been exchanged with DMEM supplemented only with 10% FBS.\npcDNA3.0-Derlin-1-HA, pcDNA3.0-Flag-SOD1 G93A, and 123 types of other mutants.\nAfter the transfection on a 24-well plate, the cells were cultured for 12 hours or 24 hours, and the obtained cell culture was exchanged with 200 μL of medium. Thereafter, 1% DMSO or various types of compounds having each different concentration were added into the culture. Thirty-six hours or twenty-four hours later, the cells were incubated in the IP lysis buffer (300 μL/well) at 4° C. for 25 minutes, so that the cells were lysed. The cell lysate was centrifuged at 4° C. at 15000 rpm for 10 minutes, and a supernatant was then recovered. To this supernatant, Anti-Flag M2 affinity gel was added in a liquid amount of 20 μL, and they were allowed to react with each other by subjecting the obtained mixture to inversion mixing at 4° C. for 25 minutes. […]"}, "[2]": {"target": "T1, complex formation by Derlin-1 (Homo sapiens, UniProt Q9BUN8)", "T1 sequence (Q9BUN8 1-251)": "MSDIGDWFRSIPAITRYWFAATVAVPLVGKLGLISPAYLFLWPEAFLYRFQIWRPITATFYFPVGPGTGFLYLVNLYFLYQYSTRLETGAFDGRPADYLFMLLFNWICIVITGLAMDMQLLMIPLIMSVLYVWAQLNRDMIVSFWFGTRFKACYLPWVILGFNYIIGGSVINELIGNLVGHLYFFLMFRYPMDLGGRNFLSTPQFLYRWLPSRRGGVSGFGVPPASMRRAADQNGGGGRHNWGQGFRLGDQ", "test": "Inhibition of complex formation by Derlin-1", "type": "cell-based", "settings": "under conditions for inhibiting the binding between mutant SOD1 and Derlin-1", "text": "(§1) In the above-described SOD1-Derlin-1-binding inhibition experiment, SOD1 G93A that is a representative mutant SOD1 associated with the onset of the pathologic conditions of ALS was used. According to previous studies, however, it has become clear that 122 types of ALS-related mutant SOD1s bind to Derlin-1 (Fujisawa et al., Ann Neurol 72, 739-749, (2012))."}, "dimerization of SOD1": {"target": "dimerization of SOD1 (Homo sapiens, UniProt P00441)", "sequence (P00441 whole entry)": "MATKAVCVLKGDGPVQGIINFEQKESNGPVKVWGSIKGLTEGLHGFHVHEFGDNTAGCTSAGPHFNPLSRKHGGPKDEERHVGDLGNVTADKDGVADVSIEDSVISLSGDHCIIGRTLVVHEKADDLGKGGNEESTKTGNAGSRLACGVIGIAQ", "test": "Inhibition of dimerization of SOD1", "type": "cell-based", "settings": "under conditions for inhibiting the binding between mutant SOD1 and Derlin-1", "text": "as §1"}, "[3]": {"target": "T2, binding between ALS-related mutant SOD1 (Flag-SOD1 G93A) and Derlin-1 (Derlin-1-HA) (Homo sapiens, UniProt P00441+Q9BUN8, G94A)", "T2 construct": "expressed in transfected cells; host or cells: HEK293A", "T2 sequence (P00441 whole entry G94A, species assumed, one chain of several)": "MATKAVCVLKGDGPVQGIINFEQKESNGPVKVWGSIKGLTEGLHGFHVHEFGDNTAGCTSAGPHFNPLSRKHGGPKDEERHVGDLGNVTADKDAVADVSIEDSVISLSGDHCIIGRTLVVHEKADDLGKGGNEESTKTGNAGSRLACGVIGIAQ", "test": "Cell-based co-immunoprecipitation assay of mutant SOD1 (G93A)-Derlin-1 binding", "set-up": "key to Activity value (score): a compound exhibiting no inhibitory activity is set at 0; a compound exhibiting inhibitory activity is set at 1; a compound exhibiting significant inhibitory activity is set at 2; a compound having higher inhibitory activity than the compound of Example 1 is set at 3"}}, "data": [{"compound": "C=CCN(C(=O)c1sc2nc(-c3cccnc3)ccc2c1N)c1ccccc1", "note": "[Example 1, N-allyl-3-amino-N-phenyl-6-(3-pyridinyl)thieno[2,3-b]pyridine-2-carboxamide]", "values": [{"measurement": "inhibition of binding between multiple types of mutant SOD1s and Derlin-1", "setting": "[1]", "result": "inhibits the binding between all of the mutant SOD s and Derlin-1"}, {"measurement": "inhibitory activity on complex formation by Derlin-1", "setting": "[2]", "result": "did not exhibit inhibitory activity"}, {"measurement": "inhibitory activity on dimerization of SOD1", "setting": "dimerization of SOD1", "result": "did not exhibit inhibitory activity"}, {"measurement": "binding between mutant SOD1 and Derlin-1 (co-precipitated Derlin-1, IB:HA band)", "setting": "[3]; 5 μM, 10 μM and 20 μM added to HEK293A cell culture, FIG. 1", "result": "the binding between mutant SOD1 and Derlin-1 was inhibited"}, {"measurement": "Activity value (score)", "setting": "[3]; assay concentration 20 μM, HEK293A cells overexpressing Flag-SOD1 G93A and Derlin-1-HA", "result": 2}]}]}
